Data: US12590062B2, “PD-1/PD-L1 inhibitors” (Gilead Sciences, Inc., priority 2017, dated 2026)

Columns and labels:
PD-1/PD-L1 interaction = molecular target: T1, PD-1/PD-L1 interaction (Homo sapiens, UniProt Q9NZQ7); assay: PD-1/PD-L1 NFAT reporter co-culture assay; assay type: cell-based; conditions: Jurkat PD-1 NFAT-luciferase cells co-cultured with aAPC-PD-L1 CHO cells, 6 hrs at 37° C.; read-out: EC50 NFAT Luciferase
T1 construct: expressed in transfected cells; host or cells: CHO cells (aAPC-PD-L1) co-cultured with Jurkat cells overexpressing PD-1 and an NFAT-luciferase reporter
In short: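 Compounds are scored by restoration of NFAT-luciferase signal in PD-1-expressing Jurkat cells cultured 6 h at 37 °C on CHO cells presenting anti-CD3 and PD-L1; EC50 values derive from four-parameter curve fitting.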

PD-1/PD-L1 = PD-1/PD-L1 (Homo sapiens, UniProt Q9NZQ7); assay: PD-1/PD-L1 biochemical protein-protein interaction assay (ALPHA); assay type: binding; conditions: 0.3 nM His tagged PD-L1, 2.5 nM biotinylated Fc-PD-1, 60 minutes at 25° C., read-out: IC50 PD-L1-PD-1 Alpha IC50-mono PD-L1-fcP-D1
In short: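 Final concentrations 0.3 nM His-tagged PD-L1 and 2.5 nM biotinylated Fc-PD-1 (extracellular domains) were reacted with compound for 60 min at 25° C in pH 7.4 Hepes/NaCl/EDTA/Tween/BSA buffer. Binding was then detected by ALPHA beads, and IC50 values were taken from four-parameter curve fitting.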

Sequence of PD-1/PD-L1 (Q9NZQ7 19-238 limits assumed): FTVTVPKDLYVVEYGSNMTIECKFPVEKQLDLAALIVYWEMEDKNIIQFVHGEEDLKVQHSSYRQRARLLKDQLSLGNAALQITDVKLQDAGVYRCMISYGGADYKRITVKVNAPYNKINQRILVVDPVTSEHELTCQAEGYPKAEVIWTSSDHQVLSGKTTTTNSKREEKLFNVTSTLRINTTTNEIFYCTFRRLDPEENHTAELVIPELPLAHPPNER
T1 sequence (Q9NZQ7 19-290): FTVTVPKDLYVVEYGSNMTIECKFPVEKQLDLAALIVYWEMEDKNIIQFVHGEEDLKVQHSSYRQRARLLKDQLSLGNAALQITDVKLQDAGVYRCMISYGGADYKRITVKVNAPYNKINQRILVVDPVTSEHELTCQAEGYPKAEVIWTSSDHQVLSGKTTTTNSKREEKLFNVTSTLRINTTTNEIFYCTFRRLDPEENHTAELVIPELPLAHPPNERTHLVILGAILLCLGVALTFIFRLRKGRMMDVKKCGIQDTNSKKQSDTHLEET

In the case of `Cc1c(COc2nc(OCc3ccc(N4CCOCC4)nc3)c(CNC[C@@H](O)CC(=O)O)cc2Br)cccc1-c1cccc(COc2nc(OCc3ccc(N4CCOCC4)nc3)c(CNC[C@@H](O)CC(=O)O)cc2Br)c1C` [Example 269, (3S,3′S)-4,4′-((((((2,2′-dimethyl-[1,1′-biphenyl]-3,3′-diyl)bis(methylene))bis(oxy))bis(5-bromo-2-((6-morpholinopyridin-3-yl)methoxy)pyridine-6,3-diyl))bis(methylene))bis(azanediyl))bis(3-hydroxybutanoic acid)], the EC50 (PD-1/PD-L1 interaction) is reported as ≥ 50000 nM and the IC50 (PD-1/PD-L1) is reported as 12.3 nM.
`Cc1c(COc2cc(OCc3cncc(C#N)c3)c(CNC(CO)CO)cc2Cl)cccc1-c1cccc(COc2cc(OCc3cncc(C#N)c3)c(CNC(CO)CO)cc2Cl)c1C` [Example 281, 5,5′-((((((2,2′-dimethyl-[1,1′-biphenyl]-3,3′-diyl)bis(methylene))bis(oxy))bis(4-chloro-6-(((1,3-dihydroxypropan-2-yl)amino)methyl)-3,1-phenylene))bis(oxy))bis(methylene))dinicotinonitrile] gave an EC50 (PD-1/PD-L1 interaction) of 488 nM and an IC50 (PD-1/PD-L1) of 8.7 nM.
For `COc1nc(OCc2cccc(-c3cccc(COc4nc(OCc5cncc(C#N)c5)c(CNC[C@@H](O)CC(=O)O)cc4Br)c3C)c2C)c(Br)cc1CNC[C@@H](O)CC(=O)O` [Example 586], the EC50 (PD-1/PD-L1 interaction) was 181 nM and the IC50 (PD-1/PD-L1) was 0.836 nM.
`Cc1c(COc2cc(OCc3cncc(C#N)c3)c(CN3C[C@@H](O)C[C@H]3C(=O)O)cc2Cl)cccc1-c1cccc(COc2cc(OCc3cncc(C#N)c3)c(CN3C[C@@H](O)C[C@H]3C(=O)O)cc2Cl)c1C` [Example 58, (2S,2′S,4S,4'S)-1,1′-(((((2,2′-dimethyl-[1,1′-biphenyl]-3,3′-diyl)bis(methylene))bis(oxy))bis(5-chloro-2-((5-cyanopyridin-3-yl)methoxy)-4,1-phenylene))bis(methylene))bis(4-hydroxypyrrolidine-2-carboxylic acid)] showed an EC50 (PD-1/PD-L1 interaction) of 822 nM and an IC50 (PD-1/PD-L1) of 0.3 nM.
`Cc1c(COc2cc(OCc3cncc(C#N)c3)c(CNC[C@@H](O)CC(=O)O)cc2Cl)cccc1-c1cccc(-c2ccc(OCCNC[C@@H](O)CC(=O)O)c(F)c2)c1C` [Example 314] was tested, and the EC50 (PD-1/PD-L1 interaction) was 188 nM and the IC50 (PD-1/PD-L1) was 0.064 nM.
`Cc1c(COc2cc(OCc3cncc(C#N)c3)c(CNC[C@@H](O)CC(=O)O)cc2Br)cccc1-c1cccc(COc2cc(OCc3cncc(C#N)c3)c(CNC[C@@H](O)CC(=O)O)cc2Br)c1C` [Example 33, (3S,3′S)-4,4′-((((((2,2′-dimethyl-[1,1′-biphenyl]-3,3′-diyl)bis(methylene))bis(oxy))bis(5-bromo-2-((5-cyanopyridin-3-yl)methoxy)-4,1-phenylene))bis(methylene))bis(azanediyl))bis(3-hydroxybutanoic acid)] showed an EC50 (PD-1/PD-L1 interaction) of 322 nM and an IC50 (PD-1/PD-L1) of 0.4 nM.
In the case of `C=CCOc1nc(OCc2cccc(-c3cccc(COc4nc(OCC=C)c(CNC[C@@H](O)CC(=O)O)cc4Br)c3C)c2C)c(Br)cc1CNC[C@@H](O)CC(=O)O` [Example 151, (3S,3′S)-4,4′-((((((2,2′-dimethyl-[1,1′-biphenyl]-3,3′-diyl)bis(methylene))bis(oxy))bis(2-(allyloxy)-5-bromopyridine-6,3-diyl))bis(methylene))bis(azanediyl))bis(3-hydroxybutanoic acid)], the EC50 (PD-1/PD-L1 interaction) is reported as ≥ 50000 nM and the IC50 (PD-1/PD-L1) is reported as 2.2 nM.
`COc1nc(/C=C/c2cccc(-c3cccc(/C=C/c4ccc(CNC[C@@H](O)CC(=O)O)c(OC)n4)c3C)c2C)ccc1CNC[C@@H](O)CC(=O)O` [Example 238, (3S,3′S)-4,4′-(((((1E,1′E)-(2,2′-dimethyl-[1,1′-biphenyl]-3,3′-diyl)bis(ethene-2,1-diyl))bis(2-methoxypyridine-6,3-diyl))bis(methylene))bis(azanediyl))bis(3-hydroxybutanoic acid)] showed an EC50 (PD-1/PD-L1 interaction) of 2120 nM and an IC50 (PD-1/PD-L1) of 0.9 nM.
Work on `O=C(O)C[C@H](O)CNCc1ccc(C(=O)N2CCc3c(-c4cccc5c4CCN5C(=O)c4ccc(CNC[C@@H](O)CC(=O)O)cc4)cccc32)cc1` [Example 181, (3S,3′S)-4,4′-(((([4,4′-biindoline]-1,1′-dicarbonyl)bis(4,1-phenylene))bis(methylene))bis(azanediyl))bis(3-hydroxybutanoic acid)] yielded an EC50 (PD-1/PD-L1 interaction) of 30900 nM and an IC50 (PD-1/PD-L1) of 3.3 nM.
`Cc1c(COc2ccc(CNCCO)cc2)cccc1-c1cccc(COc2cc(OCc3cncc(C#N)c3)c(CNCCO)cc2Cl)c1C` [Example 69, 5-((4-chloro-2-(((2-hydroxyethyl)amino)methyl)-5-((3′-((4-(((2-hydroxyethyl)amino)methyl)phenoxy)methyl)-2,2′-dimethyl-[1,1′-biphenyl]-3-yl)methoxy)phenoxy)methyl)nicotinonitrile] was tested, and the EC50 (PD-1/PD-L1 interaction) was 1740 nM and the IC50 (PD-1/PD-L1) was 14.2 nM.
`COc1nc(O[C@@H]2c3cccc(-c4cccc5c4C[C@@H](F)[C@@H]5Oc4nc(OC)c(CNC[C@@H](O)CC(=O)O)cc4Cl)c3C[C@H]2F)c(Cl)cc1CNC[C@@H](O)CC(=O)O` [Example 639, (3S,3′S)-4,4′-((((((1R,1′R,2R,2′R)-2,2′-difluoro-2,2′,3,3′-tetrahydro-1H,1′H-[4,4′-biindene]-1,1′-diyl)bis(oxy))bis(5-chloro-2-methoxypyridine-6,3-diyl))bis(methylene))bis(azanediyl))bis(3-hydroxybutanoic acid)] showed an EC50 (PD-1/PD-L1 interaction) of 942 nM and an IC50 (PD-1/PD-L1) of 1.85 nM.
In the case of `Cc1c(COc2cc(OCc3cncc(C#N)c3)c(CNCc3ncc[nH]3)cc2Br)cccc1-c1cccc(COc2cc(OCc3cncc(C#N)c3)c(CNCc3ncc[nH]3)cc2Br)c1C` [Example 261, 5,5′-((((((2,2′-dimethyl-[1,1′-biphenyl]-3,3′-diyl)bis(methylene))bis(oxy))bis(6-((((1H-imidazol-2-yl)methyl)amino)methyl)-4-bromo-3,1-phenylene))bis(oxy))bis(methylene))dinicotinonitrile], the EC50 (PD-1/PD-L1 interaction) is reported as 3170 nM and the IC50 (PD-1/PD-L1) is reported as 120 nM.
Work on `COc1nc(OCc2cccc(-c3cccc(COc4cc(OCc5cncc(C#N)c5)c(CNC[C@@H](O)CC(=O)O)cc4Cl)c3C)c2C)ccc1CNCCO` [Example 202, (S)-4-((5-Chloro-2-((5-cyanopyridin-3-yl)methoxy)-4-((3′-(((5-(((2-hydroxyethyl)amino)methyl)-6-methoxypyridin-2-yl)oxy)methyl)-2,2′-dimethyl-[1,1′-biphenyl]-3-yl)methoxy)benzyl)amino)-3-hydroxybutanoic acid] yielded an EC50 (PD-1/PD-L1 interaction) of 1920 nM and an IC50 (PD-1/PD-L1) of 3.2 nM.
Work on `Cc1c(COc2cc(OCc3cncc(C#N)c3)c(CNC[C@@H](O)CC(=O)O)cc2Cl)cccc1-c1cccc(-c2cn(CCCNC[C@@H](O)CC(=O)O)nn2)c1C` [Example 387, (S)-4-((3-(4-(3′-((4-((((S)-3-carboxy-2-hydroxypropyl)amino)methyl)-2-chloro-5-((5-cyanopyridin-3-yl)methoxy)phenoxy)methyl)-2,2′-dimethyl-[1,1′-biphenyl]-3-yl)-1H-1,2,3-triazol-1-yl)propyl)amino)-3-hydroxybutanoic acid] yielded an EC50 (PD-1/PD-L1 interaction) of 362 nM and an IC50 (PD-1/PD-L1) of 0.051 nM.
`COc1nc(OCc2cccc(-c3cccc(COc4ccc(CN5C[C@@H](O)CC5=O)c(OC)n4)c3C)c2C)ccc1CNC[C@@H](O)CC(=O)O` [Example 26, (S)-3-hydroxy-4-(((6-((3′-(((5-(((S)-4-hydroxy-2-oxopyrrolidin-1-yl)methyl)-6-methoxypyridin-2-yl)oxy)methyl)-2,2′-dimethyl-[1,1′-biphenyl]-3-y)methoxy)-2-methoxypyridin-3-yl)methyl)amino)butanoic acid] showed an EC50 (PD-1/PD-L1 interaction) of 18900 nM and an IC50 (PD-1/PD-L1) of 16.2 nM.
Compound `Cc1c(COc2cc(OCc3cncc(C#N)c3)c(CNCCCC(=O)O)cc2Cl)cccc1-c1cccc(COc2cc(OCc3cncc(C#N)c3)c(CNCCCC(=O)O)cc2Cl)c1C` [Example 164, 4,4′-((((((2,2′-dimethyl-[1,1′-biphenyl]-3,3′-diyl)bis(methylene))bis(oxy))bis(5-chloro-2-((5-cyanopyridin-3-yl)methoxy)-4,1-phenylene))bis(methylene))bis(azanediyl))dibutyric acid] has an EC50 (PD-1/PD-L1 interaction) of 500 nM and an IC50 (PD-1/PD-L1) of 0.2 nM.
With `COc1nc(/C=C/c2cccc(-c3cccc(/C=C/c4nc(OC)c(CNC[C@@H](O)CC(=O)O)cc4Cl)c3C)c2C)c(Cl)cc1CNC[C@@H](O)CC(=O)O` [Example 239, (3S,3′S)-4,4′-(((((1E,1′E)-(2,2′-dimethyl-[1,1′-biphenyl]-3,3′-diyl)bis(ethene-2,1-diyl))bis(5-chloro-2-methoxypyridine-6,3-diyl))bis(methylene))bis(azanediyl))bis(3-hydroxybutanoic acid)] the EC50 (PD-1/PD-L1 interaction) was 1120 nM and the IC50 (PD-1/PD-L1) was 8.1 nM.
`Cc1c(COc2cc(OCc3cncc(C#N)c3)c(CNCc3nnn[nH]3)cc2Cl)cccc1-c1cccc(COc2cc(OCc3cncc(C#N)c3)c(CNCc3nnn[nH]3)cc2Cl)c1C` [Example 163, 5,5′-((((((2,2′-dimethyl-[1,1′-biphenyl]-3,3′-diyl)bis(methylene))bis(oxy))bis(6-((((1H-tetrazol-5-yl)methyl)amino)methyl)-4-chloro-3,1-phenylene))bis(oxy))bis(methylene))dinicotinonitrile] showed an EC50 (PD-1/PD-L1 interaction) of 343 nM and an IC50 (PD-1/PD-L1) of 0.6 nM.
With `COC(=O)COc1nc(OCc2cccc(-c3cccc(COc4nc(OCC(=O)OC)c(CNC[C@@H](O)CC(=O)O)cc4Br)c3C)c2C)c(Br)cc1CNC[C@@H](O)CC(=O)O` [Example 150, (3S,3′S)-4,4′-((((((2,2′-dimethyl-[1,1′-biphenyl]-3,3′-diyl)bis(methylene))bis(oxy))bis(5-bromo-2-(2-methoxy-2-oxoethoxy)pyridine-6,3-diyl))bis(methylene))bis(azanediyl))bis(3-hydroxybutanoic acid)] the EC50 (PD-1/PD-L1 interaction) was ≥ 50000 nM and the IC50 (PD-1/PD-L1) was 0.5 nM.
